Test results from the Deep4Chem optical property database.
Each block holds one compound with its values, some of them ahead of it.

Test: photoluminescence quantum yield (fraction); solvent given as SMILES
[1] = in c1cc(-c2cccc(-n3c4ccccc4c4ccccc43)c2)cc(-n2c3ccccc3c3ccccc32)c1

photoluminescence quantum yield (in C1COCCO1): 0.25
photoluminescence quantum yield (in CC#N): 0.03
photoluminescence quantum yield (in CCCCOCCCC): 0.25
photoluminescence quantum yield (in CCOC(C)=O): 0.12
SMILES: COc1nc(Cl)nc(Nc2ccc3cc4ccccc4cc3c2)n1

photoluminescence quantum yield (in CO): 0.2
SMILES: COc1ccc(-c2nc(-c3ccc(OC)cc3)c(-c3ccc(OC)cc3)[nH]2)cc1

photoluminescence quantum yield (in CC#N): 0.84
SMILES: F[B-]1(F)n2c(c(-c3cccs3)c3c2-c2ccccc2CC3)C=C2C(c3cccs3)=C3CCc4ccccc4C3=[N+]21

photoluminescence quantum yield (in ClC(Cl)Cl): 0.03
SMILES: CC(=C(C#Cc1ccccc1)C#Cc1ccccc1)c1ccc(C(C)=C(C#Cc2ccccc2)C#Cc2ccccc2)cc1

photoluminescence quantum yield (in C1CCCCC1): 0.0028
photoluminescence quantum yield (in CC#N): 0.028
photoluminescence quantum yield (in CCO): 0.002
SMILES: COc1ccc2c(c1)-c1cc(OC)ccc1C2=O

photoluminescence quantum yield (in C1CCCCC1): 0.58
photoluminescence quantum yield (in CC#N): 0.51
photoluminescence quantum yield (in CCO): 0.5
photoluminescence quantum yield (in CCOC(C)=O): 0.54
SMILES: COC(=O)c1nc(-c2cccc3ccccc23)oc1C

SMILES: CN(C)c1ccc(-c2c(/C=C3/C=Cc4ccccc4N3C)c(=O)c2=O)cc1
photoluminescence quantum yield (in C1CCCCC1): 0.0301
photoluminescence quantum yield (in Cc1ccccc1): 0.0256
photoluminescence quantum yield (in ClCCl): 0.001

photoluminescence quantum yield (in ClC(Cl)Cl): 0.151
SMILES: CC(C)(C)NC(=O)c1c([Si](C)(C)C)cc2ccc3cccc4ccc1c2c34

SMILES: COc1ccc(-c2c3ccccc3c3n2[B-](F)(F)[N+]2=Cc4c5ccccc5c(-c5ccc(OC)cc5)n4[B-](F)(F)[N+]2=C3)cc1
photoluminescence quantum yield (in CC#N): 0.22
photoluminescence quantum yield (in CCCCCC): 0.32
photoluminescence quantum yield (in CN(C)C=O): 0.23
photoluminescence quantum yield (in Cc1ccccc1): 0.31
photoluminescence quantum yield (in ClCCl): 0.31

SMILES: CC1=CC(c2ccc3ccccc3c2)=[O+][B-]2(OC(=O)C(=O)O2)O1
photoluminescence quantum yield (in CC#N): 0.03
photoluminescence quantum yield (in ClC(Cl)(Cl)Cl): 0.06

photoluminescence quantum yield [1]: 0.98
SMILES: CC(C)c1cc(C(C)C)c(B2c3cc(-n4c5ccc(C(C)(C)C)cc5c5cc(C(C)(C)C)ccc54)ccc3N(c3ccccc3)c3ccc(-n4c5ccc(C(C)(C)C)cc5c5cc(C(C)(C)C)ccc54)cc32)c(C(C)C)c1

SMILES: O=C(c1ccncc1)c1ccc(-n2c3ccccc3c3ccccc32)cc1
photoluminescence quantum yield (in Cc1ccccc1): 0.012
photoluminescence quantum yield [1]: 0.38

photoluminescence quantum yield (in CO): 0.42
SMILES: COc1ccc(-c2nc(-c3ccc(C(=O)O)cc3)[nH]c2-c2ccc(OC)cc2)cc1

photoluminescence quantum yield (in CS(C)=O): 0.62
SMILES: c1ccc(-c2nc3sc4cc5c(cc4c3s2)OCO5)cc1

SMILES: CC(C)(C)c1ccc(-c2cc3c(-c4ccc(C(C)(C)C)cc4)c4cccc5c(-c6ccc(C(C)(C)C)cc6)cc6c(-c7ccc(C(C)(C)C)cc7)c7cccc2c7c3c6c54)cc1
photoluminescence quantum yield (in C1CCCCC1): 0.23
photoluminescence quantum yield (in CC#N): 0.2
photoluminescence quantum yield (in CO): 0.21
photoluminescence quantum yield (in Cc1ccccc1): 0.41
photoluminescence quantum yield (in ClCCl): 0.27

SMILES: CCC1=C(C)C2=Cc3cc(I)cn3[B-](F)(F)[N+]2=C1C
photoluminescence quantum yield (in C1CCCCC1): 0.113
photoluminescence quantum yield (in CC(C)=O): 0.063
photoluminescence quantum yield (in CCO): 0.07
photoluminescence quantum yield (in CCOC(C)=O): 0.078
photoluminescence quantum yield (in CO): 0.069
photoluminescence quantum yield (in OCC(F)(F)F): 0.05

photoluminescence quantum yield (in ClC(Cl)Cl): 0.52
SMILES: CCCCn1c(=O)c2cc3ccc4cccc5ccc(c2c1=O)c3c45

photoluminescence quantum yield (in ClCCl): 0.5
SMILES: CC[C@H](C)COc1ccc(C2=C3C(C)=C(c4ccc5ccc6cccc7ccc4c5c67)C(C)=[N+]3[B-](F)(F)n3c(C)c(-c4ccc5ccc6cccc7ccc4c5c67)c(C)c32)cc1

photoluminescence quantum yield (in ClCCl): 0.47
SMILES: Cc1ccc2nc3cc4ccccc4cc3c(-c3ccccc3)c2c1

photoluminescence quantum yield (in ClCCl): 0.34
SMILES: COc1ccc(C2=[N+]3C(=Nc4c(-c5ccc6ccccc6c5)cc(-c5ccc(OC)cc5)n4[B-]3(F)F)C(c3ccc4ccccc4c3)=C2)cc1

photoluminescence quantum yield (in CCCCCC): 0.543
SMILES: CCc1c(C(=O)OC)c(C(=O)OC)c2ccc(-c3ccccc3)nn12

SMILES: CON(OC)c1cc2c3cc(-c4c(C)cc(C)cc4C)cc4c5cc(-c6c(C)cc(C)cc6C)cc6c7cc(B(c8c(C)cc(C)cc8C)c8c(C)cc(C)cc8C)cc8c9cc(-c%10c(C)cc(C)cc%10C)cc%10c%11cc(-c%12c(C)cc(C)cc%12C)cc%12c(c1)c2c1c(c43)c(c65)c(c78)c(c9%10)c1c%11%12
photoluminescence quantum yield (in C1CCOC1): 0.46
photoluminescence quantum yield (in CC(C)=O): 0.05
photoluminescence quantum yield (in CCCCCC): 0.22
photoluminescence quantum yield (in Cc1ccccc1): 0.42
photoluminescence quantum yield (in ClC(Cl)Cl): 0.46
photoluminescence quantum yield (in ClCCl): 0.56

photoluminescence quantum yield (in CCCCCC): 0.23
photoluminescence quantum yield (in CO): 0.22
photoluminescence quantum yield (in ClCCl): 0.36
SMILES: C[Si](C)(C)c1ccc2ccc3cccc4ccc1c2c34

SMILES: CCC(=O)c1ccc2cc(N(C)C)ccc2c1
photoluminescence quantum yield (in C1CCOC1): 0.83
photoluminescence quantum yield (in C1COCCO1): 0.61
photoluminescence quantum yield (in CC#N): 0.94
photoluminescence quantum yield (in CCCCCC): 0.02
photoluminescence quantum yield (in CCCCCCC): 0.019
photoluminescence quantum yield (in CCCCCCCCO): 0.385
photoluminescence quantum yield (in CCO): 0.95
photoluminescence quantum yield (in CN(C)C=O): 0.92
photoluminescence quantum yield (in CO): 0.71
photoluminescence quantum yield (in CS(C)=O): 0.75
photoluminescence quantum yield (in Cc1ccccc1): 0.52
photoluminescence quantum yield (in ClC(Cl)Cl): 0.88
photoluminescence quantum yield (in ClCCl): 0.94

SMILES: Cc1cc(C)c(-c2nnc(-c3ccc(-n4c5ccccc5c5ccccc54)c(C)c3)o2)c(C)c1
photoluminescence quantum yield (in Cc1ccccc1): 0.44

photoluminescence quantum yield (in CCOC(C)=O): 0.51
SMILES: Cn1ncc2c3c(C#N)c4c5ccccc5n(C)c4nc3ccc21

photoluminescence quantum yield (in CC(C)O): 0.76
photoluminescence quantum yield (in CCO): 0.69
photoluminescence quantum yield (in CO): 0.6
photoluminescence quantum yield (in O): 0.2
SMILES: O=C([O-])c1ccccc1-c1c2cc(Br)c(=O)c(Br)c-2oc2c(Br)c([O-])c(Br)cc12

photoluminescence quantum yield (in CC#N): 0.032
SMILES: Brc1ccc(-c2pc3ccccc3s2)cc1 (stereo unspecified)

photoluminescence quantum yield (in C1CCOC1): 0.0137
SMILES: C1=C(c2ccccc2)C(c2ccccc2)=CC1c1ccccc1

photoluminescence quantum yield (in C1CCOC1): 0
SMILES: c1ccc2c(P(c3c4ccccc4cc4ccccc34)c3c4ccccc4cc4ccccc34)c3ccccc3cc2c1

SMILES: O=C(c1ccc(-n2c3ccccc3c3ccccc32)cc1)c1ccc(-n2c3ccccc3c3ccccc32)cc1
photoluminescence quantum yield (in Cc1ccccc1): 0.21
photoluminescence quantum yield (in O=P(c1ccccc1)(c1ccccc1)c1ccccc1Oc1ccccc1P(=O)(c1ccccc1)c1ccccc1): 0.55

SMILES: COc1nc(Nc2ccc3c4c(cccc24)C(=O)c2ccccc2-3)nc(OC)n1
photoluminescence quantum yield (in CC#N): 0.59
photoluminescence quantum yield (in CC(C)=O): 0.66
photoluminescence quantum yield (in CC(C)O): 0.38
photoluminescence quantum yield (in CCCCOCCCC): 0.22
photoluminescence quantum yield (in CCOC(C)=O): 0.58
photoluminescence quantum yield (in CCOCC): 0.39
photoluminescence quantum yield (in CO): 0.3
photoluminescence quantum yield (in Cc1ccccc1): 0.56
photoluminescence quantum yield (in Clc1ccccc1): 0.66
photoluminescence quantum yield (in N#Cc1ccccc1): 0.64
photoluminescence quantum yield (in O=C1CCCCC1): 0.67

photoluminescence quantum yield (in CO): 0.91
photoluminescence quantum yield (in CS(C)=O): 1
photoluminescence quantum yield (in ClC(Cl)Cl): 0.96
photoluminescence quantum yield (in c1ccccc1): 0.88
SMILES: CCC1=C(C)C(=O)n2c1cc1c(C)c(CC(=O)O)c(C)n1c2=O

SMILES: F[B-]1(F)n2cccc2C(c2ccccc2)=C2C=CC=[N+]21
photoluminescence quantum yield (in Cc1ccccc1): 0.053
photoluminescence quantum yield (in ClCCl): 0.74

SMILES: COc1ccc(-c2cc3c4c(c2)CCc2cc(-c5ccc(OC)cc5)cc(c2-4)CC3)cc1
photoluminescence quantum yield (in C1CCCCC1): 0.81
photoluminescence quantum yield (in C1CCOC1): 0.76
photoluminescence quantum yield (in CC#N): 0.6
photoluminescence quantum yield (in CCCCCC): 0.92
photoluminescence quantum yield (in CCO): 0.53
photoluminescence quantum yield (in CN(C)C=O): 0.55
photoluminescence quantum yield (in CO): 0.45
photoluminescence quantum yield (in Cc1ccccc1): 1
photoluminescence quantum yield (in ClC(Cl)Cl): 0.39
photoluminescence quantum yield (in ClCCl): 1

photoluminescence quantum yield (in ClCCl): 0.626
SMILES: CC(C)(C)c1cc(C#Cc2ccc3c(C#Cc4cc(C(C)(C)C)cc(C(C)(C)C)c4)cc4c5cc(C#Cc6cc(C(C)(C)C)cc(C(C)(C)C)c6)ccc5c(C#Cc5cc(C(C)(C)C)cc(C(C)(C)C)c5)cc4c3c2)cc(C(C)(C)C)c1

SMILES: CCN(CC)c1ccc2cc(/C=C(\C#N)c3nc4ccccc4o3)c(=O)oc2c1
photoluminescence quantum yield (in C1COCCO1): 0.0097
photoluminescence quantum yield (in CC#N): 0.0071
photoluminescence quantum yield (in CCO): 0.0158
photoluminescence quantum yield (in CCOC(C)=O): 0.0068
photoluminescence quantum yield (in CN(C)C=O): 0.0307
photoluminescence quantum yield (in CO): 0.0157
photoluminescence quantum yield (in CS(C)=O): 0.0263
photoluminescence quantum yield (in Cc1ccccc1): 0.0061
photoluminescence quantum yield (in ClCCl): 0.0066

SMILES: c1ccc(-c2nc(-c3ccccc3)nc(-c3ccc(-n4c5ccccc5c5c4c4ccccc4n5-c4ccccc4)cc3)n2)cc1
photoluminescence quantum yield (in Cc1ccccc1): 0.445

photoluminescence quantum yield (in ClCCl): 0.48
SMILES: Cc1cccc(-c2c3ccccc3cc3ccccc23)n1

SMILES: c1ccc2c(c1)CCc1c-2cnc2c1-c1ccccc1CC2
photoluminescence quantum yield (in C1CCOC1): 0.665
photoluminescence quantum yield (in CC#N): 0.69
photoluminescence quantum yield (in CCCCCC): 0.149
photoluminescence quantum yield (in CCOC(C)=O): 0.567
photoluminescence quantum yield (in CO): 0.141
photoluminescence quantum yield (in CS(C)=O): 0.227
photoluminescence quantum yield (in Cc1ccccc1): 0.513
photoluminescence quantum yield (in ClCCl): 0.291

photoluminescence quantum yield (in ClCCl): 0.36
SMILES: COC(=O)/C=C/C1=CC2=C(c3c(C)cc(C)cc3C)c3cc(/C=C/C(=O)OC)cn3[B-](F)(F)[N+]2=C1

SMILES: CN(C)c1ccc(-c2nc(-c3ccc(-n4c5ccccc5c5ccccc54)cc3)cc(-c3ccc(-n4c5ccccc5c5ccccc54)cc3)n2)cc1
photoluminescence quantum yield (in C1CCOC1): 0.035
photoluminescence quantum yield (in CN(C)C=O): 0.011
photoluminescence quantum yield (in Cc1ccccc1): 0.07
photoluminescence quantum yield (in ClC(Cl)Cl): 0.07

photoluminescence quantum yield (in CCO): 0.32
SMILES: CC(C)Nc1cc2c(cc1F)c(=O)c1cc(F)c(NC(C)C)cc1n2C(C)C

photoluminescence quantum yield (in CC(C)(C)O): 0.12
photoluminescence quantum yield (in CC(C)CO): 0.09
photoluminescence quantum yield (in CC(C)O): 0.08
photoluminescence quantum yield (in CCCCO): 0.14
photoluminescence quantum yield (in CCCO): 0.15
photoluminescence quantum yield (in CCO): 0.15
photoluminescence quantum yield (in CN(C)C=O): 0.05
photoluminescence quantum yield (in CNC=O): 0.03
photoluminescence quantum yield (in CO): 0.22
photoluminescence quantum yield (in NC=O): 0.26
photoluminescence quantum yield (in O): 0.55
SMILES: COCCOCCOc1cc(C=O)c(OCCOCCOC)cc1C=O

photoluminescence quantum yield (in ClCCl): 0.16
SMILES: CC(C)(C)c1ccc(-c2c3c(c(-c4ccccc4)c4cc5ccccc5cc24)Cc2c(c(-c4ccccc4)c4cc5ccccc5cc4c2-c2ccc(C(C)(C)C)cc2)C3)cc1

photoluminescence quantum yield (in CCCCCC): 0.94
SMILES: CC1=[N+]2C(=C(c3ccccc3)c3c4c5ccccc5c5ccccc5c4c(C)n3[B-]2(F)F)c2c1c1ccccc1c1ccccc21

photoluminescence quantum yield (in CO): 0.008
SMILES: N#Cc1c(-n2nnc3cc(Cl)ccc32)n([C@H]2C[C@H](O)[C@@H](CO)O2)c2ncnc(N)c12
